Measurements: patent publication US10335488B2, “Method for treating cancer by photodynamic therapy” (D. R. NANO CO., LTD., priority 2014, dated 2019)

Key:
[1] = test system: cancer cells (MDA-MB-231, MCF-7, PC-3, HeLa, HT-29) and normal cells (MRC-5, Clone-1-5c-4, NIH3T3); experiment: Cytotoxicity (Dark) by MTT analysis; assay type: cell-based, human; mouse (NIH/3T3); conditions: 1 hour incubation, no laser
Protocol: In order to confirm of the cytotoxicity of MB NPs, 200 μL of a cell culture solution in which 1×10^4 ea of cells were dispersed was put into a dish for cell culture (96-well plate) and cultured (5% CO2, 37° C.) in an artificial culture chamber for 24 hours, and the dish was washed with DPBS, and then a mixture solution of 20 μL of MB NPs and 180 μL of a cell culture solution was added to the cell, and the resulting culture solution was cultured in the same artificial culture chamber for 1 hour. After the dish was washed with DPBS, the number of each cell was observed by the MTT analysis method.
The experiment was performed on cancer cells and normal cells, and MDA-MB-231 cell, MCF-7 cell, PC-3 cell, HeLa cell, and HT-29 cell are illustrated in FIGS. 7a, 7b, 7c, 7d, and 7e, respectively, and normal cells MRC-5, Clone-1-5c-4, and NIH3T3 are illustrated in FIGS. 8a to 8c, respectively.

[2] = test system: cancer cells MDA-MB-231, MCF-7, PC-3, HeLa, HT-29; normal cells MRC-5, clone 1-5c-4, NIH/3T3; experiment: Accumulation in cells by fluorescence microscopy; assay type: cell-based, human; mouse (NIH/3T3); conditions: 1 hour incubation, fluorescence microscope
Protocol: In order to determine if the nanoparticles (MB NPs) prepared in Example 1 would be accumulated in the cancer cell, 1×10^5 of each of cancer cells MDA-MB-231 (breast, mammary gland/human, Korean Cell Line Bank), MCF-7 (breast, mammary gland/human, Korean Cell Line Bank), PC-3 (prostate; grade 4; metastasis to bone/human, Korean Cell Line Bank), HeLa (cervix/human, Korean Cell Line Bank), and HT-29 (Colon/human, Korean Cell Line Bank) was respectively dispersed in 2 mL of cell culture solution [DMEM (WELGENE) culture solution was used for the HeLa cell, and RPMI1640 (WELGENE) culture solution was used for the other cells]. And then the solution was put into a dish for cell culture (35 mm, glass-bottomed dish), and cultured in a culture chamber (5% CO2, 37° C.). After 24 hours, the dish was washed with 2 mL of DPBS (WELGENE), and 1.8 mL of the culture solution and 0.2 mL of the nanoparticles were added thereto, and the resulting dish was stored in a culture chamber (5% CO2, 37° C.) for 1 hour. The stored cell culture dish was washed with 2 mL of DPBS, cells were fixed with 1 mL of a cell fixation solution, and then fluorescence images were observed by fluorescence microscope (LEICA DMI3000B equipped with a Nuance FX multispectral imaging system, CRI). […]

Compound: CN(C)c1ccc2nc3ccc(=[N+](C)C)cc-3sc2c1 [MB Sol., methylene blue]
- cytotoxicity of the material (Dark) [1]: no cytotoxicity of the material itself
- infiltration capacity into cell [2]: not found in the cell
